Results on 34 compounds are retold here after a polymer gas permeability compilation.

`*c1c(C)cc(-c2cc(C)c(N3C(=O)c4ccc(Oc5cc(C)c(Oc6ccc7c(c6)C(=O)N(*)C7=O)c(C)c5C)cc4C3=O)c(C)c2)cc1C` (repeat unit) showed a CH4 permeability of 1.2 Barrer, a CO2 permeability of 39 Barrer, an H2 permeability of 55 Barrer and an N2 permeability of 1.2 Barrer. Also, the O2 permeability is 6.5 Barrer.
In turn, `*Oc1ccc(Oc2cccc(*)c2C#N)c(-c2cccc(C(F)(F)F)c2)c1` (repeat unit) gave a CH4 permeability of 0.09 Barrer, a CO2 permeability of 3.7 Barrer, an H2 permeability of 9.3 Barrer and an N2 permeability of 0.15 Barrer. Also, the O2 permeability was 0.87 Barrer.
`*c1c(C)cc(-c2cc(C)c(N3C(=O)c4cc5c(cc4C3=O)S(=O)(=O)c3cc4c(cc3S5(=O)=O)C(=O)N(*)C4=O)c(C)c2)cc1C` (repeat unit) displayed a CH4 permeability of 1.21 Barrer, a CO2 permeability of 39 Barrer, an H2 permeability of 58 Barrer and an N2 permeability of 1.33 Barrer. In addition, the O2 permeability was 6.6 Barrer.
The compound `*c1cc2c(cc1*)C1(C(C)C)c3ccccc3C2(C(C)C)c2cc3c(cc21)Oc1cc2nc(*)c(*)nc2cc1O3` (repeat unit) yielded a CH4 permeability of 7.27 Barrer, an H2 permeability of 1100 Barrer, an N2 permeability of 7.09 Barrer and an O2 permeability of 61 Barrer.
The compound `*c1cccc(Oc2cccc(N3C(=O)c4ccc(C(c5ccc6c(c5)C(=O)N(*)C6=O)(C(F)(F)F)C(F)(F)F)cc4C3=O)c2)c1` (repeat unit) had a CH4 permeability of 0.032 Barrer, a CO2 permeability of 2.1 Barrer, an H2 permeability of 14 Barrer and an N2 permeability of 0.1 Barrer. In addition, the O2 permeability was 0.68 Barrer.
On to `*O[Si](C)(C)c1cccc([Si](*)(C)C)c1` (repeat unit), for which the CH4 permeability is 106 Barrer, the CO2 permeability was determined as 518 Barrer and the O2 permeability worked out at 74 Barrer.
`*c1ccc(Cc2ccc(N3C(=O)c4ccc(Oc5ccc(Oc6ccc7c(c6)C(=O)N(*)C7=O)cc5)cc4C3=O)cc2)cc1` (repeat unit) displayed a CH4 permeability of 0.0222 Barrer, a CO2 permeability of 1.22 Barrer, an H2 permeability of 5.08 Barrer and an N2 permeability of 0.0357 Barrer. For the same compound, the O2 permeability was 0.242 Barrer.
Compound `*NC(=O)c1ccc(C(c2ccc(C(=O)O)c(C(=O)Nc3cc(Oc4ccc(*)c(N)c4)ccc3N)c2)(C(F)(F)F)C(F)(F)F)cc1C(=O)O` (repeat unit) gave a CH4 permeability of 0.087 Barrer, a CO2 permeability of 3.69 Barrer, an N2 permeability of 0.17 Barrer and an O2 permeability of 0.97 Barrer.
Turning to `*Oc1ccc(Oc2ccc(C(=O)c3ccc(*)cc3)cc2)c(-c2cc(C)cc(C)c2)c1` (repeat unit), the CH4 permeability turned out to be 0.05 Barrer, the CO2 permeability came to 1.6 Barrer, the H2 permeability was 4.6 Barrer and the N2 permeability is 0.053 Barrer. In addition, the O2 permeability came out at 0.33 Barrer.
For the compound `*c1ccc(Cc2ccc(-n3c(=O)c4cc5c(=O)n(*)c(=O)c5cc4c3=O)cc2)cc1` (repeat unit), the CH4 permeability turned out to be 0.0576 Barrer, the CO2 permeability was 2.5 Barrer, the H2 permeability is 6.61 Barrer and the N2 permeability amounted to 0.069 Barrer. This compound also displayed an O2 permeability of 0.398 Barrer.
The compound `*C(C(=O)OC(C)C)C(*)C(=O)OC1CCCCC1` (repeat unit) displayed an H2 permeability of 41 Barrer, an N2 permeability of 3 Barrer and an O2 permeability of 8 Barrer.
As for `*c1ccc(-c2ccc(-c3ccc(C(*)(c4ccccc4)C(F)(F)F)cc3)cc2)cc1` (repeat unit), the CH4 permeability is 13 Barrer, the CO2 permeability was determined as 220 Barrer, the H2 permeability was determined as 126 Barrer and the N2 permeability amounted to 9 Barrer. Also, the O2 permeability was found to be 32 Barrer.
Take `*c1ccc(Oc2ccc(C3(c4ccc(Oc5ccc(N6C(=O)c7ccc(C(c8ccc9c(c8)C(=O)N(*)C9=O)(C(F)(F)F)C(F)(F)F)cc7C6=O)cc5C(F)(F)F)cc4)c4ccccc4-c4ccccc43)cc2)c(C(F)(F)F)c1` (repeat unit): the CH4 permeability is 2.43 Barrer, the CO2 permeability was 61.8 Barrer, the H2 permeability turned out to be 151 Barrer and the N2 permeability was 5.2 Barrer. The O2 permeability came out at 20 Barrer.
Turning to `*Oc1ccc(C(c2ccc(Oc3ccc(S(=O)(=O)c4ccc(*)cc4)cc3)cc2)(C(F)(F)F)C(F)(F)F)cc1` (repeat unit), the CH4 permeability amounted to 0.55 Barrer, the CO2 permeability was 12 Barrer, the N2 permeability was 0.67 Barrer and the O2 permeability was 3.4 Barrer.
Compound `*Oc1ccc(C(C)(C)c2ccc(Oc3ccc(C(=O)c4ccc(C(=O)c5ccc(*)cc5)cc4)cc3)cc2)cc1` (repeat unit) had a CH4 permeability of 0.084 Barrer, a CO2 permeability of 2.19 Barrer, an H2 permeability of 9.07 Barrer and an N2 permeability of 0.087 Barrer. Moreover, the O2 permeability was found to be 0.604 Barrer.
In turn, `*C(=O)c1ccc(C(c2ccc3c(c2)C(=O)n2c-3nc3cc4nc(*)n(*)c4cc32)(C(F)(F)F)C(F)(F)F)cc1*` (repeat unit) registered a CH4 permeability of 0.911 Barrer, a CO2 permeability of 54 Barrer, an N2 permeability of 2.58 Barrer and an O2 permeability of 15.2 Barrer.
`*Oc1cccc(C(C)(C)c2ccc(Oc3ccc(S(=O)(=O)c4ccc(*)cc4)cc3)cc2)c1` (repeat unit) came in with a CH4 permeability of 0.052 Barrer, a CO2 permeability of 1.5 Barrer, an H2 permeability of 8 Barrer and an N2 permeability of 0.066 Barrer. Besides, the O2 permeability worked out at 0.39 Barrer.
Turning to `*Oc1c(C)cc(*)c(C(=O)c2ccc([N+](=O)[O-])cc2)c1C` (repeat unit), the CH4 permeability is 0.76 Barrer, the CO2 permeability was determined as 11.4 Barrer, the N2 permeability worked out at 1.27 Barrer and the O2 permeability turned out to be 5.04 Barrer.
In turn, `*Cc1ccc(C*)c(C)c1` (repeat unit) had a CO2 permeability of 0.265 Barrer, an H2 permeability of 0.994 Barrer, an N2 permeability of 0.0157 Barrer and an O2 permeability of 0.0572 Barrer.
Turning to `*Oc1ccc(Oc2ccc(C(=O)c3ccc(*)cc3)cc2)c(-c2cccc(C)c2)c1` (repeat unit), the CH4 permeability was determined as 0.024 Barrer, the CO2 permeability came out at 1 Barrer, the H2 permeability was found to be 3.8 Barrer and the N2 permeability stood at 0.029 Barrer. Besides, the O2 permeability was found to be 0.2 Barrer.
The compound `*Oc1ccc(C(C)(C)c2ccc(C(C)(C)c3ccc(Oc4ccc(S(=O)(=O)c5ccc(*)cc5)cc4)cc3)cc2)cc1` (repeat unit) came in with a CH4 permeability of 0.34 Barrer, a CO2 permeability of 6.8 Barrer, an H2 permeability of 36 Barrer and an N2 permeability of 0.321 Barrer. The compound further showed an O2 permeability of 1.8 Barrer.
In turn, `*c1c(C)c(C)c(N2C(=O)c3ccc(Oc4cc(C)c(Oc5ccc6c(c5)C(=O)N(*)C6=O)c(C)c4C)cc3C2=O)c(C)c1C` (repeat unit) displayed a CH4 permeability of 7.6 Barrer, a CO2 permeability of 200 Barrer, an H2 permeability of 230 Barrer and an N2 permeability of 8.1 Barrer. In addition, the O2 permeability was determined as 33 Barrer.
As for `*Nc1ccc(*)cc1OC` (repeat unit), the CO2 permeability stood at 1.06 Barrer, the H2 permeability turned out to be 6.04 Barrer, the N2 permeability was 0.047 Barrer and the O2 permeability stood at 0.202 Barrer.
In turn, `*Oc1ccc(C(C)(C)c2ccc(OC(=O)c3ccc(C(=O)Oc4cc(-c5cc(*)cc6ccccc56)c5ccccc5c4)cc3)cc2)cc1` (repeat unit) registered a CH4 permeability of 0.471 Barrer, a CO2 permeability of 9.9 Barrer, an N2 permeability of 0.364 Barrer and an O2 permeability of 2.04 Barrer.
`*c1ccc(C(c2ccc(-c3nnc(*)n3-c3ccc(O)cc3)cc2)(C(F)(F)F)C(F)(F)F)cc1` (repeat unit) returned a CH4 permeability of 6.69 Barrer, a CO2 permeability of 268 Barrer and an N2 permeability of 10.2 Barrer.
Compound `*Oc1ccc(C2(c3ccc(OC(=O)c4cccc(C(*)=O)c4)cc3)c3ccccc3-c3ccccc32)cc1` (repeat unit) came in with a CH4 permeability of 0.71 Barrer, a CO2 permeability of 20.1 Barrer, an N2 permeability of 0.64 Barrer and an O2 permeability of 3.92 Barrer.
For `*Oc1c(C)cc(C(C)(C)c2cc(C)c(OC(=O)c3cc(C(*)=O)cc(C(C)(C)C)c3)c(C)c2)cc1C` (repeat unit), the CH4 permeability is 2.72 Barrer, the CO2 permeability amounted to 45.3 Barrer, the H2 permeability was 96 Barrer and the N2 permeability amounted to 2.6 Barrer. The same compound showed an O2 permeability of 12.7 Barrer.
For `*CC(*)c1ccc(Cl)cc1` (repeat unit), the CH4 permeability was found to be 0.26 Barrer, the CO2 permeability came to 4.3 Barrer, the N2 permeability turned out to be 0.23 Barrer and the O2 permeability is 1.2 Barrer.
`*CC(*)OC1C2CC3CC(C2)CC1C3` (repeat unit): the CO2 permeability turned out to be 25.2 Barrer, the N2 permeability stood at 1.69 Barrer and the O2 permeability is 6.01 Barrer.
`*CC(*)C(=O)OCC` (repeat unit) gave a CH4 permeability of 14.9 Barrer, a CO2 permeability of 176 Barrer, an H2 permeability of 60.4 Barrer and an N2 permeability of 6.46 Barrer. Moreover, the O2 permeability worked out at 19 Barrer.
For the compound `*OC(=O)Oc1c(C)cc(C(C)(C)c2cc(C)c(*)c(C)c2)cc1C` (repeat unit), the CH4 permeability is 0.955 Barrer, the CO2 permeability stood at 19.6 Barrer, the N2 permeability was 1.07 Barrer and the O2 permeability was determined as 5.54 Barrer.
For `*c1ccc(N(c2ccc(N3C(=O)c4ccc(C(c5ccc6c(c5)C(=O)N(*)C6=O)(C(F)(F)F)C(F)(F)F)cc4C3=O)cc2)c2ccc(N(c3ccc(OC)cc3)c3ccc(OC)cc3)cc2)cc1` (repeat unit), the CH4 permeability came out at 0.4 Barrer, the CO2 permeability worked out at 13 Barrer, the N2 permeability came to 0.59 Barrer and the O2 permeability was 2.94 Barrer.
In turn, `*CC(*)OCc1ccccc1` (repeat unit) came in with a CO2 permeability of 11.1 Barrer, an N2 permeability of 0.79 Barrer and an O2 permeability of 2.33 Barrer.
Compound `*Oc1c(C)cc(C(C)(C)c2cc(C)c(Oc3ccc(S(=O)(=O)c4ccc(*)cc4)cc3)c(C)c2)cc1C` (repeat unit) yielded a CH4 permeability of 0.95 Barrer, a CO2 permeability of 21 Barrer, an N2 permeability of 1.06 Barrer and an O2 permeability of 5.6 Barrer.
